From ChEMBL document CHEMBL5214927, “Recent advance on carbamate-based cholinesterase inhibitors as potential multifunctional agents against Alzheimer's disease” (Eur J Med Chem, 2022)
pIC50, pKi: −log10 of the molar value.

Experiments:
[1] = Selectivity index, ratio of IC50 for human plasma BChE to IC50 for electric eel AChE
[2] = target: T1, Acetylcholinesterase (Homo sapiens, UniProt P22303); experiment: Binding affinity to AChE (unknown origin) assessed as inhibition constant preincubated for 60 mins followed by substrate addition measured after 60 mins by colorimetric method
[3] = target: Beta-secretase 1 (Homo sapiens, UniProt P56817); experiment: Inhibition of BACE1 (unknown origin) using A-beta-PP as substrate by fluorescence based assay
[4] = target: T2, Cholinesterases; ACHE & BCHE (Homo sapiens) (UniProt P06276+P22303); experiment: Selectivity index, ratio of IC50 for AChE (unknown origin) to BChE (unknown origin); format: protein assay
[5] = target: Acetylcholinesterase (Torpedo californica, UniProt P04058)
Description: Inhibition of Pacific electric ray AChE using acetylthiocholine iodide as substrate by Ellman's method

[6] = target: T3, Cholinesterase (Homo sapiens, UniProt P06276); experiment: Binding affinity of human serum BChE assessed as inhibition constant by Ellman's method
[7] = target: T1, Acetylcholinesterase; experiment: Inhibition of recombinant human AChE using acetylthiocholine as substrate at 100 uM preincubated for 5 mins followed by substrate addition measured for 1 min by Ellman's method relative to control; settings: time 6.0 min
[8] = target: T4, Amine oxidase [flavin-containing] A (Homo sapiens, UniProt P21397); experiment: Inhibition of recombinant human MAO-A expressed in BTI-TN-5B1-4 insect cells using p-tyramine as substrate at 100 uM preincubated for 15 mins followed by substrate addition measured after 20 mins by Amplex Red assay relative to control; settings: BTI-TN-5B1-4, human, time 35 min
T4 sequence (P21397 whole entry): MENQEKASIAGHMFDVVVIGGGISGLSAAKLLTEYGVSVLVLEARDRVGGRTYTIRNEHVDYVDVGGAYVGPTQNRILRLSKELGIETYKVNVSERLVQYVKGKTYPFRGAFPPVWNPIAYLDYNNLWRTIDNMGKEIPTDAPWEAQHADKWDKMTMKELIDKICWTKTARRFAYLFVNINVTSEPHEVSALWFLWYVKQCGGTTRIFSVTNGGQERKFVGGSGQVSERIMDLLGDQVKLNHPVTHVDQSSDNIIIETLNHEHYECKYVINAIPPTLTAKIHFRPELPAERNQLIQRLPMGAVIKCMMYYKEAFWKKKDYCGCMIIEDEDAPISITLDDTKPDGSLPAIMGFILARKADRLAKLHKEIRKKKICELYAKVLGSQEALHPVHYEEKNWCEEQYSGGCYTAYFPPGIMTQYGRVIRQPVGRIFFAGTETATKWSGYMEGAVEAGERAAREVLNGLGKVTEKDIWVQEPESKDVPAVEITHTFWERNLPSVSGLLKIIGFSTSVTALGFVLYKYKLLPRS

[9] = target: Acetylcholinesterase (Electrophorus electricus, UniProt O42275); experiment: Inhibition of electric eel AChE using acetylthiocholine iodide as substrate incubated for 5 mins followed by substrate addition by Ellman's method
[10] = target: T1, Acetylcholinesterase; experiment: Binding affinity to AChE (unknown origin) assessed as inhibition constant
[11] = Toxicity in mouse assessed as lethal dose; settings: in vivo
[12] = target: T1, Acetylcholinesterase; experiment: Inhibition of human AChE
[13] = target: Muscarinic acetylcholine receptor M1 (Homo sapiens, UniProt P11229); experiment: Binding affinity to Muscarinic acetylcholine receptor M1 (unknown origin) assessed as inhibition constant
[14] = target: Muscarinic acetylcholine receptor M2 (Homo sapiens, UniProt P08172); experiment: Binding affinity to Muscarinic acetylcholine receptor M2 (unknown origin) assessed as inhibition constant
[15] = target: Muscarinic acetylcholine receptor M3 (Homo sapiens, UniProt P20309); experiment: Binding affinity to Muscarinic acetylcholine receptor M3 (unknown origin) assessed as inhibition constant
[16] = target: Fatty-acid amide hydrolase 1 (Rattus norvegicus, UniProt P97612); experiment: Displacement of [14C]-ethanolamine from FAAH derived from rat brain membrane fraction preincubated for 20 mins followed by susbstrate addition by scintillation counting method; format: cell membranes
[17] = target: T2, Cholinesterases; ACHE & BCHE (Homo sapiens); experiment: Selectivity index, ratio of IC50 for recombinant human serum AChE to IC50 for recombinant human serum BChE; format: protein assay
[18] = target: T1, Acetylcholinesterase; experiment: Binding affinity to human AChE assessed as inhibition constant
[19] = target: T3, Cholinesterase; experiment: Binding affinity to human BChE assessed as inhibition constant
[20] = target: Carbonic anhydrase 1 (Homo sapiens, UniProt P00915); experiment: Binding affinity to human CA1 assessed as inhibition constant using p-nitrophenylacetate as substrate by spectrophotometry
[21] = target: Carbonic anhydrase 2 (Homo sapiens, UniProt P00918); experiment: Binding affinity to human CA2 assessed as inhibition constant using p-nitrophenylacetate as substrate by spectrophotometry
[22] = target: T1, Acetylcholinesterase; experiment: Binding affinity to AChE (unknown origin) assessed as inhibition constant using acetylthiocholine iodide as substrate preincubated for 10 mins followed by substrate addition by Ellman's method
[23] = target: T1, Acetylcholinesterase; experiment: Inhibition of human erythrocyte AChE using acetylthiocholine iodide as substrate preincubated for 6 mins followed by substrate addition measured upto 180 secs by Ellman's method
[24] = target: T4, Amine oxidase [flavin-containing] A; experiment: Inhibition of recombinant human MAO-A using p-tyramine as substrate preincubated for 15 mins followed by substrate addition measured upto 20 mins by Amplex red assay
[25] = target: T1, Acetylcholinesterase; experiment: Binding affinity to human AChE assessed as inhibition constant using acetylthiocholine iodide as substrate preincubated for 10 mins followed by substrate addition by Ellman's method

T3 sequence (P06276 whole entry): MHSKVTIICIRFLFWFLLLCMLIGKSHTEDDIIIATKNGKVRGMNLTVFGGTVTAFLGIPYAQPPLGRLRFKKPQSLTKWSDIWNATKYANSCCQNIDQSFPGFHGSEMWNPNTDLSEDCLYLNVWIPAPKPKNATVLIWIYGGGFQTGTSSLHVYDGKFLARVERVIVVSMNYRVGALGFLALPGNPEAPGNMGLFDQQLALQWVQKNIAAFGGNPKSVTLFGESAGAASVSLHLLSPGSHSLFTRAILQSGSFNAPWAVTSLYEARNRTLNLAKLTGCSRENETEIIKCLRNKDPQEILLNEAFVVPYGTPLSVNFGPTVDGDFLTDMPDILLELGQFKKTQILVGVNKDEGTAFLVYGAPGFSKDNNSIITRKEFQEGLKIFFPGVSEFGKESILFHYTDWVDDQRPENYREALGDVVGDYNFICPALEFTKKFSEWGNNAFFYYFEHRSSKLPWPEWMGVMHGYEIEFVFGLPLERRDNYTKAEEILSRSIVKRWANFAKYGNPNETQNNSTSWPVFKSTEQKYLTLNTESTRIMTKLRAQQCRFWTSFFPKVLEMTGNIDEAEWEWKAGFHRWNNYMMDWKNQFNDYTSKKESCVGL
T1 sequence (P22303 whole entry): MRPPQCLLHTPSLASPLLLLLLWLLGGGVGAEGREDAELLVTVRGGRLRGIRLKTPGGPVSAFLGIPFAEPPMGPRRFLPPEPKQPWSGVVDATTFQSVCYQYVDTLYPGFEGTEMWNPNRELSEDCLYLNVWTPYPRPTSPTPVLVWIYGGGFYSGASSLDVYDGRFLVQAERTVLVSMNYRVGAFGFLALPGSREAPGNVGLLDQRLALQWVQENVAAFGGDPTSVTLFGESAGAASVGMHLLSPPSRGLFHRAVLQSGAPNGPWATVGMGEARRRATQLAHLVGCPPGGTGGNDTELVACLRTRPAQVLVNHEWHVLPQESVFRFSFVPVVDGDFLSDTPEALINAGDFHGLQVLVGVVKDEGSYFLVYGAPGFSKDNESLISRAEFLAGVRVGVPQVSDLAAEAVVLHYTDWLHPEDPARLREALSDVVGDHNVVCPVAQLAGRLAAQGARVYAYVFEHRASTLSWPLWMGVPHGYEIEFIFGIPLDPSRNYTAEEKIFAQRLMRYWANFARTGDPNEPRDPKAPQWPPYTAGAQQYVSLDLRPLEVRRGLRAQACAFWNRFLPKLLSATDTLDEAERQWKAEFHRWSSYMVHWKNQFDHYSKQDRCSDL
Carbonic anhydrase 1, sequence (P00915 whole entry): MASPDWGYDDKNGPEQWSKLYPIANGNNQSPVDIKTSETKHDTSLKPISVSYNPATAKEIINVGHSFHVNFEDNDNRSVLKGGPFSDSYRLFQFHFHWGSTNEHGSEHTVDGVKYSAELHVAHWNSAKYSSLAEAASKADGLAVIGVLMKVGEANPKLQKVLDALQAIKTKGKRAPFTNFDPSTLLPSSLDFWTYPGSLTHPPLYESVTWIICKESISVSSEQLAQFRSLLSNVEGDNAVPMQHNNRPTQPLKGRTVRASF
T2 sequence (P06276 whole entry, looked up): as the sequence (P06276 whole entry) above
T2 sequence (P22303 whole entry, looked up): as the sequence (P22303 whole entry) above
Fatty-acid amide hydrolase 1, sequence (P97612 whole entry): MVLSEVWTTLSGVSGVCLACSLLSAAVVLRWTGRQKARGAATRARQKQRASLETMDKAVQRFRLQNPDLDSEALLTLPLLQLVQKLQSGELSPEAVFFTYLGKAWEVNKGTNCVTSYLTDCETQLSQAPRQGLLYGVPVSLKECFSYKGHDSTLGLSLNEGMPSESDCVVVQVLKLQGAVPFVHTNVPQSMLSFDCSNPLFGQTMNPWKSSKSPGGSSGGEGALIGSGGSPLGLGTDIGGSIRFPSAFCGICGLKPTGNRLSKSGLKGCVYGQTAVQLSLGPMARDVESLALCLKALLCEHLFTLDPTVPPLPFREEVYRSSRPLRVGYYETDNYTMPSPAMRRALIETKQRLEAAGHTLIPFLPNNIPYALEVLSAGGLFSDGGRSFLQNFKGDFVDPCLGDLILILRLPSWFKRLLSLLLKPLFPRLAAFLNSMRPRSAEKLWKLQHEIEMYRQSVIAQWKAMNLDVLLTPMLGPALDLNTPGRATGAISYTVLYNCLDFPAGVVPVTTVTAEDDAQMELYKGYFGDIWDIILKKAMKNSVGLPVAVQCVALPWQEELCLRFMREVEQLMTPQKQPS
Acetylcholinesterase (Torpedo californica, UniProt P04058), sequence (P04058 whole entry): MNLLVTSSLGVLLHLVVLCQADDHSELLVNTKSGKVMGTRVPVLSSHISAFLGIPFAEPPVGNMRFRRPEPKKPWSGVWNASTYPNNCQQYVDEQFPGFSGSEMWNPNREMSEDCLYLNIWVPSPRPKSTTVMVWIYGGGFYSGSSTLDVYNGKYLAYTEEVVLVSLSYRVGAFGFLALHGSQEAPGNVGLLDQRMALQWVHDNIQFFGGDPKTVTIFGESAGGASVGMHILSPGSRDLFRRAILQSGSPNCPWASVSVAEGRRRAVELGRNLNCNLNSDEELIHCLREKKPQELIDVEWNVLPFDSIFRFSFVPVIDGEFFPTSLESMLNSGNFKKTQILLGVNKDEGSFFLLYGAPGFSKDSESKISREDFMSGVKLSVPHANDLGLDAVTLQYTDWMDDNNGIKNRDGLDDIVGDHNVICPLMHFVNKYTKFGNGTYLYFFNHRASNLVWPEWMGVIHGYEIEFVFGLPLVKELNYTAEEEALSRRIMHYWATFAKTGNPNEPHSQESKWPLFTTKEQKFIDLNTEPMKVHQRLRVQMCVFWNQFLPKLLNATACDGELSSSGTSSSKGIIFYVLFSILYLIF
Beta-secretase 1, sequence (P56817 whole entry): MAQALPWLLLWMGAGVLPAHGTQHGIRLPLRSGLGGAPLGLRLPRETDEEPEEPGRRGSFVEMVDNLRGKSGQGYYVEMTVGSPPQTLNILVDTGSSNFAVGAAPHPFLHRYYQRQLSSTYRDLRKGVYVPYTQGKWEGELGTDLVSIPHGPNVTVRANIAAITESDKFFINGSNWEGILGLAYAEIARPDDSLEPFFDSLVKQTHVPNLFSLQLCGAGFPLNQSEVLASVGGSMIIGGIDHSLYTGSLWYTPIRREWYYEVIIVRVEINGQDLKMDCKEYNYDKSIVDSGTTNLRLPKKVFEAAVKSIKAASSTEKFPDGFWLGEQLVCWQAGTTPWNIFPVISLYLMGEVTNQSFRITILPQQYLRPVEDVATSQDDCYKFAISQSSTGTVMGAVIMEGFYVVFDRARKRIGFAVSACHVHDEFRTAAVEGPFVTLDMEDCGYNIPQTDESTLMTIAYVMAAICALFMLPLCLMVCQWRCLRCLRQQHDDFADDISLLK
Acetylcholinesterase (Electrophorus electricus, UniProt O42275), sequence (O42275 whole entry): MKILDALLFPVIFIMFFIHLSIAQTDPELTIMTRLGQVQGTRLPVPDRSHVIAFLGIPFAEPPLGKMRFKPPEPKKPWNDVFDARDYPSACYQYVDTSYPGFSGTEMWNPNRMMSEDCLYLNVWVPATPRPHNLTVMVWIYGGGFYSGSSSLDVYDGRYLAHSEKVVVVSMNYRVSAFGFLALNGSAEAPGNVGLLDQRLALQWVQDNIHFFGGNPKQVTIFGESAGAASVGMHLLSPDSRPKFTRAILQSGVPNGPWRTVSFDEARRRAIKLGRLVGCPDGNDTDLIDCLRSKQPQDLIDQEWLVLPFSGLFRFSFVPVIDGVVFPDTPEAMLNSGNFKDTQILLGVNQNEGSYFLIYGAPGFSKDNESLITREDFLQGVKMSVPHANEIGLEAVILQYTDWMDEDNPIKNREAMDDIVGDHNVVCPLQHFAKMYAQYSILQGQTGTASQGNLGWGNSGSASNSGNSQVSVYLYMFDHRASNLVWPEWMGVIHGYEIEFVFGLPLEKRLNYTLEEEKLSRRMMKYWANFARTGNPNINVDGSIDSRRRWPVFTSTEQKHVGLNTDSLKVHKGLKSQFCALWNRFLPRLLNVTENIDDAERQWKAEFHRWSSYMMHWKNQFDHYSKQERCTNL
Muscarinic acetylcholine receptor M1, sequence (P11229 whole entry): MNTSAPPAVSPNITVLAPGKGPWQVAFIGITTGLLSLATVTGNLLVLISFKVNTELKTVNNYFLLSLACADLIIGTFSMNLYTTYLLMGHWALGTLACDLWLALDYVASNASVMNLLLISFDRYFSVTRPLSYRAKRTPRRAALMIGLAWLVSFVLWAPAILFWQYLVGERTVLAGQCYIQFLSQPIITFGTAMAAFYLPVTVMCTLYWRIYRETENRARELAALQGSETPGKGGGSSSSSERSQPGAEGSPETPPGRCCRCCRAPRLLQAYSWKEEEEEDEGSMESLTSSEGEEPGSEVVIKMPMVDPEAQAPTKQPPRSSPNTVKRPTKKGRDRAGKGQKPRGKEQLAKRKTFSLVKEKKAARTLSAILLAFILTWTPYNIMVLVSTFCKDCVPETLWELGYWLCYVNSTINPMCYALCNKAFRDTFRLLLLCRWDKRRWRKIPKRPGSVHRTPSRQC
Muscarinic acetylcholine receptor M2, sequence (P08172 whole entry): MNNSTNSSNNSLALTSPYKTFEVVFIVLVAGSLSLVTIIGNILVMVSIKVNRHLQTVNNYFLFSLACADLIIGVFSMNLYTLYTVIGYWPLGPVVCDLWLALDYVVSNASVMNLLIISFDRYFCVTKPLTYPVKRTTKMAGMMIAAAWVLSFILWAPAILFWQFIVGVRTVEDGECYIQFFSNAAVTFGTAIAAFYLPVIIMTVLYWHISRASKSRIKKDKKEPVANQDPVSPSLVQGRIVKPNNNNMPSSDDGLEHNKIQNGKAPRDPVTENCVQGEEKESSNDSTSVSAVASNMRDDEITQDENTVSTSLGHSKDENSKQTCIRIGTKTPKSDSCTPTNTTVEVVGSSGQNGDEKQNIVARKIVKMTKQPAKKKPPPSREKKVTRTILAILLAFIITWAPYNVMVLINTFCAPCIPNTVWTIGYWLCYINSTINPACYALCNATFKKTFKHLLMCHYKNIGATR

## O=C(CCCCC1CCSS1)O[C@@H]1CO[C@H]2[C@@H]1OC[C@@H]2OC(=O)NCc1ccccc1 (some centres not stated)
[1]
  Ratio IC50: 667

## CC1CCCCN1CCCNC(=O)c1cc(NC(=O)OC(C)(C)C)ccc1O (configuration not stated)
[2]
  pKi: 6.77
[3]
  pIC50: 7.81

## CCc1ccccc1NC(=O)Oc1ccc2c(c1)[C@]1(C)CC[N+](C)([O-])[C@@H]1N2C (some centres not stated)
[4]
  Ratio IC50: 115
[5]
  pIC50: 8.32

## CC(C)c1ccc(NC(=O)Oc2ccc3c(c2)[C@]2(C)CCN(Cc4ccc(F)cc4)[C@@H]2N3C)cc1
[6]
  pKi: 6.47

## C#CCN1CCC(CCc2cccc(OC(=O)N(C)CC)c2)CC1
[7]
  inhibition: 50.2%
[8]
  inhibition at 100 µM: 69.4%

## COc1cc2c(cc1OC)C(=O)C(Cc1ccc(OC(=O)Nc3ccc(Cl)cc3)cc1)C2 (configuration not stated)
[9]
  pIC50: 5.33

## CCCCCCCNC(=O)Oc1ccc2c(c1)[C@]1(C)CCN(C)[C@@H]1N2C [EPTASTIGMINE]
[10]
  pKi: 7.00
[11]
  LD50: 35 mg/kg

## CNC(=O)Oc1cccc2c1CCC1C2CCN1CCC1CCCCC1 (configuration not stated)
[12]
  pIC50: 7.24
[13]
  pKi: 6.18
[14]
  pKi: 6.88
[15]
  pKi: 5.82

## CN(CCCOc1ccc2ccc(=O)oc2c1)Cc1cccc(OC(=O)NC2CCCCC2)c1
[16]
  pIC50: 8.88
[17]
  Ratio IC50: 2.98

## CCN(CC)C(=O)OC1C[N+]2(C)CCC1CC2 (configuration not stated)
[18]
  pKi: 5.46
[19]
  pKi: 5.82

## COc1cccc2c1CCC(NC(=O)OCc1ccccc1)C2 (configuration not stated)
[20]
  pKi: 8.23
[21]
  pKi: 8.13
[22]
  pKi: 9.58

## O=C(Nc1ccccc1)OC1CN2CCC1CC2 (configuration not stated)
[18]
  pKi: 6.00
[19]
  pKi: 5.52

## Cc1c(Cl)c(=O)oc2cc(OCCCCSC(=S)N3C(C)CCCC3C)ccc12 (configuration not stated)
[23]
  pIC50: 6.94
[24]
  pIC50: 5.23

## COc1cc2c(c(OC)c1)CC(NC(=O)OCc1ccccc1)C2 (configuration not stated)
[25]
  pKi: 9.58
[20]
  pKi: 8.25
[21]
  pKi: 8.13

## COc1cccc2c1CCCC2NS(=O)(=O)NC(=O)OCc1ccccc1 (configuration not stated)
[20]
  pIC50: 8.35
[21]
  pIC50: 8.31
[22]
  pIC50: 9.68
